Each structure is given as a SMILES string.

For one assay, the system named is hIL-6 mRNA. Put plainly: Inhibition of hIL-6 mRNA transcription in LPS-stimulated U937 macrophages. Format: cell-based, Human. The conditions noted are these: Homo sapiens, U-937, PMA-differentiated U937 cells, 1 h pretreatment, LPS 3 h, read-out: IL-6 activity. The gist of the method: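 PMA-differentiated U937 macrophages (60 ng/mL PMA, 3 days) pretreated 1 h with compound in 0.1% DMSO, then stimulated with 1 ug/mL E. coli LPS for 3 h at 37° C. IL-6 mRNA quantified by one-step TaqMan qRT-PCR, normalized to cyclophilin; fold expression relative to control, triplicate wells.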

Another assay relates to Human AML MV-4-11 cells. Nature of the assay: Inhibition of cell proliferation in MV4-11 cells (CellTiter Aqueous One). Format: cell-based. The conditions noted are these: for IC50: MV4-11, 72 h. A digest of the protocol:
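MV4-11 cells, 5×10^4 per well in IMDM with 10% FBS, were exposed to increasing compound concentrations or 0.1% DMSO for 72 h at 37 °C in triplicate. Viability was read by MTS (CellTiter Aqueous One) absorbance at 490 nm after 3-4 h. IC50 was derived from background-corrected signal relative to DMSO.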

Assay [1] addresses Brd4 bromodomain 1 (BRD4(1)) (Homo sapiens, UniProt O60885). Put plainly: Inhibition of tetra-acetylated histone H4 binding to Brd4 bromodomain 1, measured by FRET (HTRF). The arrangement: made in house; host or cells: E. coli BL21(DE3). The conditions noted are these: 2 h at room temperature. A digest of the protocol:
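Inhibition was read as a drop in 665 nm relative to 620 nm HTRF signal after 2 h at room temperature, with IC50 from dose-response curves in duplicate wells. Reactions held 200 nM E. coli-expressed His-tagged bromodomain and 25-50 nM biotinylated tetra-acetylated histone H4 peptide. Buffer was 30 mM HEPES pH 7.4 with KF, CHAPS, BSA and 0.2% DMSO.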

Another assay deals with hIL-17 mRNA. Nature of the assay: Inhibition of hIL-17 mRNA transcription in OKT3-stimulated peripheral blood mononuclear cells. The conditions noted are these: human PBMC, OKT3 stimulation 6 h, read-out: IL-17 Activity. The class given is cell-based. The protocol:
Human peripheral blood mononuclear cells were plated (2.0×10^5 cells per well) in a 96-well plate in 45 μL OpTimizer T Cell expansion media (Life Technologies) containing 20 ng/ml IL-2 and penicillin/streptomycin. The cells were treated with increasing concentrations of the test compound or DMSO (0.1%), and incubated at 37° C., 5% CO2 for 1 h before addition of 10× stock OKT3 antibody at 10 ug/ml in media. Triplicate wells were used for each concentration. Cells were incubated at 37° C., 5% CO2 for 6 h before the cells were harvested. At time of harvest, cells were pelleted by centrifugation at 800 rpm for 5 min. Cells were harvested using the mRNA Catcher PLUS kit according to manufacturer's instructions. The eluted mRNA was then used in a one-step quantitative real-time PCR reaction, using components of the RNA UltraSense™ One-Step Kit (Life Technologies) together with Applied Biosystems TaqMan® primer-probes for hIL-17 and Cyclophilin. Real-time PCR plates were run on a ViiA™7 real time PCR machine (Applied Biosystems), data was analyzed, normalizing the Ct values for hIL-17 to an internal control, prior to determining the fold induction of each unknown sample, relative to the control.

In assay [2] the test system is c-myc in Human AML MV4-11 cells. Put plainly: Inhibition of cMYC expression (mRNA, real-time PCR) in MV4-11 cells. The class given is cell-based. The conditions noted are these: 3 h treatment, cMYC mRNA by real-time PCR. A digest of the protocol: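 MV4-11 cells in IMDM with 10% FBS were treated with increasing compound concentrations (DMSO 0.1%) for 3 h at 37 °C, in triplicate. Isolated mRNA was quantified by one-step TaqMan RT-qPCR, cMYC Ct normalized to cyclophilin, and fold expression given relative to DMSO control.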

`Cc1noc(C)c1-c1cc(Nc2ccccc2)c2nc[nH]c2c1` [Example Compound 7, 6-(3,5-dimethylisoxazol-4-yl)-N-phenyl-1H-benzo[d] imidazol-4-amine]: the IC50 in the assay with hIL-6 mRNA is ≤ 300 nM; with Human AML MV-4-11 cells, 300 to 3000 nM; in assay [1], ≤ 300 nM; in the assay with hIL-17 mRNA it was 300 to 3000 nM; in assay [2], 300 to 3000 nM.
For the molecule `Cc1noc(C)c1-c1cc2c(c(-c3c(C)noc3C)c1)OCC(=O)N2` [Example Compound 11, 6,8-bis(3,5-dimethylisoxazol-4-yl)-2H-benzo[b][1,4]oxazin-3(4H)-one], the IC50 was 300 to 3000 nM in the assay with hIL-6 mRNA; 300 to 3000 nM in the assay with Human AML MV-4-11 cells; ≤ 300 nM in assay [1]; 300 to 3000 nM with hIL-17 mRNA; 300 to 3000 nM in assay [2].
With `Cc1noc(C)c1-c1cc2c(c(-c3c(C)noc3C)c1)OCCN2` [Example Compound 13, 6,8-bis(3,5-dimethylisoxazol-4-yl)-3,4-dihydro-2H-benzo[b][1,4]oxazine], the IC50 was 300 to 3000 nM in the assay on hIL-6 mRNA; 300 to 3000 nM in the assay with Human AML MV-4-11 cells; ≤ 300 nM in assay [1]; 300 to 3000 nM in the assay with hIL-17 mRNA; 300 to 3000 nM in assay [2].
For `Cc1noc(C)c1-c1cc(-c2ccccc2C(F)(F)F)c2nc[nH]c2c1` [Example Compound 19, 3,5-dimethyl-4-(4-(2-(trifluoromethyl)phenyl)-1H-benzo[d]imidazol-6-yl)isoxazole], the IC50 in the assay on hIL-6 mRNA is 300 to 3000 nM; in the assay on Human AML MV-4-11 cells, 300 to 3000 nM; in assay [1] it was 300 to 3000 nM; with hIL-17 mRNA it was ≤ 300 nM; in assay [2] it was 300 to 3000 nM.
For the molecule `Cc1noc(C)c1-c1cc(-c2c(C)noc2C)c2nc(C(C)C)[nH]c2c1` [Example Compound 45, 4,4′-(2-isopropyl-1H-benzo[d]imidazole-4,6-diyl)bis(3,5-dimethylisoxazole)], the IC50 with Human AML MV-4-11 cells is 300 to 3000 nM; in assay [1] it was ≤ 300 nM; in the assay with hIL-17 mRNA, 300 to 3000 nM; in assay [2] it was 300 to 3000 nM.
`COc1ncccc1-c1cc(-c2c(C)noc2C)cc2[nH]cnc12` [Example Compound 48, 4-(4-(2-methoxy-pyridin-3-yl)-1H-benzo[d]imidazol-6-yl)-3,5-dimethyl isoxazole]: the IC50 in the assay with Human AML MV-4-11 cells was 300 to 3000 nM; in assay [1] it was ≤ 300 nM; in the assay with hIL-17 mRNA, 300 to 3000 nM; in assay [2], 300 to 3000 nM.
As for `Cc1nc2c(-c3cc(C#N)ccc3C)cc(-c3c(C)noc3C)cc2[nH]1` [Example Compound 58, 3-(6-(3,5-dimethyl-isoxazol-4-yl)-2-methyl-1H-benzo[d]imidazol-4-yl)-4-methyl-benzonitrile], the IC50 with hIL-6 mRNA was ≤ 300 nM; with Human AML MV-4-11 cells, ≤ 300 nM; in assay [1] it was ≤ 300 nM; with hIL-17 mRNA, 300 to 3000 nM.
On to `Cc1nc2c(-c3cccnc3C(F)(F)F)cc(-c3c(C)noc3C)cc2[nH]1` [Example Compound 59, 3,5-dimethyl-4-(2-methyl-4-(2-(trifluoro-methyl)pyridin-3-yl)-1H-benzo[d]imidazol-6-yl)isoxazole], for which the IC50 in the assay with hIL-6 mRNA is ≤ 300 nM; in the assay with Human AML MV-4-11 cells, ≤ 300 nM; in assay [1], ≤ 300 nM; in the assay with hIL-17 mRNA it was 300 to 3000 nM.
As to `Cc1noc(C)c1-c1cc(-c2cccc(C(N)=O)c2C)c2nc(NC3CCOCC3)[nH]c2c1` [Example Compound 207, 3-(6-(3,5-dimethyl-isoxazol-4-yl)-2-((tetrahydro-2H-pyran-4-yl)amino)-1H-benzo[d]imidazol-4-yl)-2-methyl benzamide], the IC50 is 300 to 3000 nM in the assay on hIL-6 mRNA, 300 to 3000 nM in the assay with Human AML MV-4-11 cells, ≤ 300 nM in assay [1] and 300 to 3000 nM in assay [2].
Turning to `Cc1noc(C)c1-c1cc(-c2cccc(C#N)c2C)c2nc(N3CCC(N)CC3)[nH]c2c1` [Example Compound 209, 3-(2-(4-amino-piperidin-1-yl)-6-(3,5-dimethyl-isoxazol-4-yl)-1H-benzo[d]imidazol-4-yl)-2-methyl benzonitrile], the IC50 in the assay with hIL-6 mRNA was 300 to 3000 nM; in the assay on Human AML MV-4-11 cells, ≤ 300 nM; in assay [1], ≤ 300 nM; in assay [2], 300 to 3000 nM.
Regarding `Cc1ccc(C#N)cc1-c1cc(-c2c(C)noc2C)cc2[nH]c(NCc3ccccc3)nc12` [Example Compound 210, 3-(2-(benzylamino)-6-(3,5-dimethyl-isoxazol-4-yl)-1H-benzo[d]imidazol-4-yl)-4-methyl benzonitrile], the IC50 with hIL-6 mRNA is 300 to 3000 nM; with Human AML MV-4-11 cells, ≤ 300 nM; in assay [1], ≤ 300 nM; in assay [2], 300 to 3000 nM.
`CNc1nc2c(-c3cnccc3C)cc(-c3c(C)noc3C)cc2[nH]1` [Example Compound 214, 6-(3,5-dimethyl-isoxazol-4-yl)-N-methyl-4-(4-methylpyridin-3-yl)-1H-benzo[d] imidazol-2-amine]: the IC50 is 300 to 3000 nM in the assay on hIL-6 mRNA, ≤ 300 nM in the assay on Human AML MV-4-11 cells, ≤ 300 nM in assay [1] and ≤ 300 nM in assay [2].
As to `Cc1noc(C)c1-c1cc(-c2cc(N)c(=O)n(C)c2)c2nc[nH]c2c1` [Example Compound 225, 3-amino-5-(6-(3,5-dimethylisoxazol-4-yl)-1H-benzo[d]imidazol-4-yl)-1-methyl-pyridin-2(1H)-one], the IC50 in the assay with hIL-6 mRNA lay in the range of 3000 to 30000 nM; in the assay on Human AML MV-4-11 cells, 3000 to 30000 nM; in assay [1], 300 to 3000 nM; in assay [2], 300 to 3000 nM.
In the case of `Cc1noc(C)c1-c1cc(-c2c(C)noc2C)c2nc(N3CCOCC3)[nH]c2c1` [Example Compound 226, 4-(4,6-bis(3,5-dimethylisoxazol-4-yl)-1H-benzo[d]imidazol-2-yl)morpholine], the IC50 (in the assay on hIL-6 mRNA; with Human AML MV-4-11 cells; in assay [1]; in assay [2]) was ≤ 300 nM each time.
Turning to `COc1c(-c2c(C)noc2C)cc2[nH]c(C)nc2c1-c1c(C)noc1C` [Example Compound 227, 4,4′-(5-methoxy-2-methyl-1H-benzo[d]imidazole-4,6-diyl)bis(3,5-dimethylisoxazole)], the IC50 in the assay with hIL-6 mRNA is 300 to 3000 nM; in the assay with Human AML MV-4-11 cells, 3000 to 30000 nM; in assay [1] it was 300 to 3000 nM; in assay [2] it was 300 to 3000 nM.
Turning to `Cc1noc(C)c1-c1cc(-c2c(C)noc2C)c2nc(C3CCOCC3)[nH]c2c1` [Example Compound 228, 4,4′-(2-(tetrahydro-2H-pyran-4-yl)-1H-benzo[d]imidazole-4,6-dyl)bis(3,5-dimethylisoxazole)], the IC50 was 300 to 3000 nM in the assay with hIL-6 mRNA, 300 to 3000 nM in the assay on Human AML MV-4-11 cells, ≤ 300 nM in assay [1] and 300 to 3000 nM in assay [2].
In the case of `Cc1noc(C)c1-c1cc(-c2c(C)noc2C)c2nc(NC3CCOCC3)[nH]c2c1` [Example Compound 229, 4,6-bis(3,5-dimethyl-isoxazol-4-yl)-N-(tetrahydro-2H-pyran-4-yl)-1H-benzo[d] imidazol-2-amine], the IC50 with hIL-6 mRNA is ≤ 300 nM; with Human AML MV-4-11 cells it was 300 to 3000 nM; in assay [1], ≤ 300 nM; in assay [2], ≤ 300 nM.
With `Cc1noc(C)c1-c1cc(-c2ccnn2C)cc2[nH]cnc12` [Example Compound 230, 3,5-dimethyl-4-(6-(1-methyl-1H-pyrazol-5-yl)-1H-benzo[d]imidazol-4-yl)isoxazole], the results for the IC50 (in the assay on hIL-6 mRNA; in assay [1]; in assay [2]) were 3000 to 30000 nM, 300 to 3000 nM and 300 to 3000 nM, respectively. In addition, the “Cell Proliferation activity” value in the assay with Human AML MV-4-11 cells (72 h) is reported as “Not active”.
With `Cc1noc(C)c1-c1cc(-c2c(C)noc2C)c2nc(N3CCN(C)CC3)[nH]c2c1` [Example Compound 231, 4,4′-(2-(4-methyl-piperazin-1-yl)-1H-benzo[d]imidazole-4,6-diyl) bis(3,5-dimethylisoxazole)], the IC50 (in the assay on hIL-6 mRNA; in the assay on Human AML MV-4-11 cells; in assay [1]; in assay [2]) was ≤ 300 nM each time.

These data come from patent publication US9999616B2 (ZENITH EPIGENETICS LTD., priority 2013, dated 2018).
